Data published in PubChem BioAssay (NCI).
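1) Cells in 96-well plates. 2) Compound, 48 h, 5 concentrations. 3) Linear interpolation between surrounding doses. 4) Unreached endpoint = highest concentration. TGI: concentration producing complete growth inhibition.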

Legend:
Assay in all cases: NCI anticancer screen, dose series, 48 h
786-0 renal = tested on: 786-0 renal
A549 NSCLC = tested on: A549 NSCLC
ACHN renal = tested on: ACHN renal
CAKI-1 renal = tested on: CAKI-1 renal
CCRF-CEM leukemia = tested on: CCRF-CEM leukemia
COLO 205 colon = tested on: COLO 205 colon
DMS 114 small cell lung = tested on: DMS 114 small cell lung
DMS 273 small cell lung = tested on: DMS 273 small cell lung
HCC-2998 colon = tested on: HCC-2998 colon
HL-60(TB) leukemia = tested on: HL-60(TB) leukemia
HOP-18 NSCLC = tested on: HOP-18 NSCLC
HOP-62 NSCLC = tested on: HOP-62 NSCLC
K-562 leukemia = tested on: K-562 leukemia
LOX IMVI melanoma = tested on: LOX IMVI melanoma
LXFL 529 NSCLC = tested on: LXFL 529 NSCLC
M19-MEL melanoma = tested on: M19-MEL melanoma
MALME-3M melanoma = tested on: MALME-3M melanoma
MOLT-4 leukemia = tested on: MOLT-4 leukemia
NCI-H23 lung = tested on: NCI-H23 lung
NCI-H460 lung = tested on: NCI-H460 lung
OVCAR-4 ovarian = tested on: OVCAR-4 ovarian
OVCAR-5 ovarian = tested on: OVCAR-5 ovarian
OVCAR-8 ovarian = tested on: OVCAR-8 ovarian
RPMI-8226 leukemia = tested on: RPMI-8226 leukemia
SF-268 CNS = tested on: SF-268 CNS
SF-295 CNS = tested on: SF-295 CNS
SK-MEL-28 melanoma = tested on: SK-MEL-28 melanoma
SK-OV-3 ovarian = tested on: SK-OV-3 ovarian
SN12C renal = tested on: SN12C renal
SNB-75 CNS = tested on: SNB-75 CNS
SW-620 colon = tested on: SW-620 colon
TK-10 renal = tested on: TK-10 renal
UO-31 renal = tested on: UO-31 renal
DLD-1 colon = tested on: DLD-1 colon
EKVX NSCLC = tested on: EKVX NSCLC
HCT-116 colon = tested on: HCT-116 colon
HCT-15 colon = tested on: HCT-15 colon
HT29 colon = tested on: HT29 colon
IGROV1 ovarian = tested on: IGROV1 ovarian
KM12 colon = tested on: KM12 colon
KM20L2 colon = tested on: KM20L2 colon
M14 melanoma = tested on: M14 melanoma
NCI-H226 lung = tested on: NCI-H226 lung
NCI-H522 lung = tested on: NCI-H522 lung
OVCAR-3 ovarian = tested on: OVCAR-3 ovarian
RXF 393 renal = tested on: RXF 393 renal
RXF-631 renal = tested on: RXF-631 renal
SF-539 CNS = tested on: SF-539 CNS
SK-MEL-2 melanoma = tested on: SK-MEL-2 melanoma
SNB-19 CNS = tested on: SNB-19 CNS
SNB-78 CNS = tested on: SNB-78 CNS
SR leukemia = tested on: SR leukemia
U251 CNS = tested on: U251 CNS
UACC-257 melanoma = tested on: UACC-257 melanoma
UACC-62 melanoma = tested on: UACC-62 melanoma
XF 498 CNS = tested on: XF 498 CNS

## COc1cc([C@@H]2c3cc4c(cc3[C@@H](OC(=O)c3ccccc3)C3COC(=O)[C@@H]32)OCO4)cc(OC)c1O (stereo not given in full)
786-0 renal
  TGI: 45.5 µM
A549 NSCLC
  TGI: 35.6 µM
ACHN renal
  TGI: 18.4 µM
CAKI-1 renal
  TGI: 79.2 µM
CCRF-CEM leukemia
  TGI: > 100 µM
COLO 205 colon
  TGI: 0.963 µM
DMS 114 small cell lung
  TGI: 0.0229 µM
DMS 273 small cell lung
  TGI: > 100 µM
HCC-2998 colon
  TGI: > 100 µM
HL-60(TB) leukemia
  TGI: 15.4 µM
HOP-18 NSCLC
  TGI: > 100 µM
HOP-62 NSCLC
  TGI: 28.7 µM
K-562 leukemia
  TGI: > 100 µM
LOX IMVI melanoma
  TGI: 84.5 µM
LXFL 529 NSCLC
  TGI: > 100 µM
M19-MEL melanoma
  TGI: 69 µM
MALME-3M melanoma
  TGI: 29.9 µM
MOLT-4 leukemia
  TGI: 41.4 µM
NCI-H23 lung
  TGI: 0.0642 µM
NCI-H460 lung
  TGI: 20.9 µM
OVCAR-4 ovarian
  TGI: > 100 µM
OVCAR-5 ovarian
  TGI: > 100 µM
OVCAR-8 ovarian
  TGI: > 100 µM
RPMI-8226 leukemia
  TGI: 44 µM
SF-268 CNS
  TGI: > 100 µM
SF-295 CNS
  TGI: > 100 µM
SK-MEL-28 melanoma
  TGI: > 100 µM
SK-OV-3 ovarian
  TGI: > 100 µM
SN12C renal
  TGI: 26.9 µM
SNB-75 CNS
  TGI: 36.8 µM
SW-620 colon
  TGI: > 100 µM
TK-10 renal
  TGI: > 100 µM
UO-31 renal
  TGI: 33.5 µM

## CC(=O)Nc1ccc(/C=C/C(=O)c2sc(-c3nc(C)c(C(=O)/C=C/c4ccc(NC(C)=O)cc4)s3)nc2C)cc1
786-0 renal
  TGI: > 100 µM
A549 NSCLC
  TGI: > 100 µM
ACHN renal
  TGI: > 100 µM
CAKI-1 renal
  TGI: > 100 µM
CCRF-CEM leukemia
  TGI: > 100 µM
COLO 205 colon
  TGI: > 100 µM
DLD-1 colon
  TGI: > 100 µM
DMS 114 small cell lung
  TGI: > 100 µM
DMS 273 small cell lung
  TGI: > 100 µM
EKVX NSCLC
  TGI: > 100 µM
HCC-2998 colon
  TGI: > 100 µM
HCT-116 colon
  TGI: > 100 µM
HCT-15 colon
  TGI: > 100 µM
HL-60(TB) leukemia
  TGI: > 100 µM
HOP-62 NSCLC
  TGI: > 100 µM
HT29 colon
  TGI: > 100 µM
IGROV1 ovarian
  TGI: > 100 µM
K-562 leukemia
  TGI: > 100 µM
KM12 colon
  TGI: > 100 µM
KM20L2 colon
  TGI: > 100 µM
LOX IMVI melanoma
  TGI: > 100 µM
LXFL 529 NSCLC
  TGI: > 100 µM
M14 melanoma
  TGI: > 100 µM
M19-MEL melanoma
  TGI: > 100 µM
MALME-3M melanoma
  TGI: > 100 µM
MOLT-4 leukemia
  TGI: > 100 µM
NCI-H226 lung
  TGI: > 100 µM
NCI-H23 lung
  TGI: > 100 µM
NCI-H460 lung
  TGI: > 100 µM
NCI-H522 lung
  TGI: > 100 µM
OVCAR-3 ovarian
  TGI: > 100 µM
OVCAR-4 ovarian
  TGI: > 100 µM
OVCAR-5 ovarian
  TGI: > 100 µM
OVCAR-8 ovarian
  TGI: > 100 µM
RXF 393 renal
  TGI: > 100 µM
RXF-631 renal
  TGI: > 100 µM
SF-295 CNS
  TGI: > 100 µM
SF-539 CNS
  TGI: > 100 µM
SK-MEL-2 melanoma
  TGI: > 100 µM
SK-MEL-28 melanoma
  TGI: > 100 µM
SK-OV-3 ovarian
  TGI: > 100 µM
SN12C renal
  TGI: > 100 µM
SNB-19 CNS
  TGI: > 100 µM
SNB-78 CNS
  TGI: > 100 µM
SR leukemia
  TGI: > 100 µM
SW-620 colon
  TGI: > 100 µM
TK-10 renal
  TGI: > 100 µM
U251 CNS
  TGI: > 100 µM
UACC-257 melanoma
  TGI: > 100 µM
UACC-62 melanoma
  TGI: > 100 µM
UO-31 renal
  TGI: > 100 µM
XF 498 CNS
  TGI: > 100 µM
